Source: patent US9669044B2, “Aminoglycoside and azole compositions and methods” (Utah State University, priority 2010, dated 2017)
Values after ≈ are worked out from the molar mass of the structure shown. Like-named read-outs stand apart in the source and are kept apart here.

Key:
[1] = tested on: Escherichia coli B; assay: Bacterial MIC test in trypticase soy broth; type: cell-based; conditions: 35° C., 12-18 hrs
Protocol: (§1) For purposes of the experiments discussed in this paragraph, the MIC is defined as the lowest concentration of compound needed to inhibit the growth of bacteria. A solution of a selected bacterium was inoculated into trypticase soy broth (Difco, B D, Franklin Lakes, N.J., USA), at 35° C. and incubated for 1-2 hours. […] The 96-well plate was incubated at 35° C. for 12-18 hrs. The MIC tests were repeated at least three times.

[2] = tested on: Micrococcus luteus; assay: Bacterial MIC test in trypticase soy broth; type: cell-based; conditions: 35° C., 12-18 hrs
Protocol: as §1

[3] = tested on: Staphylococcus aureus ATCC 6538; assay: Disk diffusion growth inhibitory assay; type: cell-based; parameters: key to the marks not given beside the values; conditions: PDA-CA medium
[4] = tested on: Escherichia coli TG1; type: cell-based; parameters: key to the marks not given beside the values; note: key: +++, considerable activity; ++, moderate activity; −−−, no activity
[5] = tested on: Micrococcus luteus; assay: Disk diffusion growth inhibitory assay; type: cell-based; parameters: key to the marks not given beside the values; conditions: PDA-CA medium
[6] = tested on: Fusarium graminearum; type: cell-based; conditions: disk diffusion, PDA-CA medium
[7] = tested on: Fusarium culmorum; type: cell-based; parameters: key to the marks not given beside the values; note: key: +++, considerable activity; ++, moderate activity; −−−, no activity
[8] = tested on: Cladosporium cladosporioides; type: cell-based; parameters: key to the marks not given beside the values; note: key: +++, considerable activity; ++, moderate activity; −−−, no activity
[9] = tested on: Rhizopus stolonifer; assay: Disk diffusion growth inhibitory assay; type: cell-based; parameters: key: +++, considerable activity; ++, moderate activity; −−−, no activity; conditions: PDA-CA medium
[10] = tested on: Saccharomyces cerevisiae W303C; type: cell-based; parameters: key to the marks not given beside the values; note: key: +++, considerable activity; ++, moderate activity; −−−, no activity
[11] = tested on: Candida albicans ATCC 10231; assay: Disk diffusion growth inhibitory assay; type: cell-based; parameters: key: +++, considerable activity; ++, moderate activity; −−−, no activity; conditions: PDA-CA medium
[12] = tested on: Ulocladium spp.; assay: Disk diffusion growth inhibitory assay; type: cell-based; parameters: key: +++, considerable activity; ++, moderate activity; −−−, no activity; conditions: PDA-CA medium
[13] = tested on: Mucor haemalis; assay: Disk diffusion growth inhibitory assay; type: cell-based; parameters: key: +++, considerable activity; ++, moderate activity; −−−, no activity; conditions: PDA-CA medium
[14] = tested on: Fusarium oxysporum; assay: Disk diffusion growth inhibitory assay; type: cell-based; parameters: key: +++, considerable activity; ++, moderate activity; −−−, no activity; conditions: PDA-CA medium
[15] = tested on: Rhodotorula pilimanae; assay: Disk diffusion growth inhibitory assay; type: cell-based; parameters: Relative Activity (zone of inhibition diameter): key: +++, considerable activity; ++, moderate activity; −−−, no activity
[16] = tested on: Azole-resistant Candida albicans ATCC 10231; assay: Disk diffusion test for synergistic inhibition by itraconazole and K20; type: cell-based
[17] = tested on: Microdochium nivale; type: cell-based; parameters: key to the marks not given beside the values; note: key: +++, considerable activity; ++, moderate activity; −−−, no activity
[18] = tested on: Penicillium spp; type: cell-based; parameters: key to the marks not given beside the values; note: key: +++, considerable activity; ++, moderate activity; −−−, no activity
[19] = tested on: Azole-resistant Candida albicans ATCC 10231; assay: Microdilution checkerboard assay of K20 and azoles; type: cell-based; conditions: for MIC: Candida albicans, ATCC10231, read-out: MIC, azole alone; for MIC of azole in combination with K20: combined with K20; for Effect (drug interaction class by FICI) / FICI (Fractional Inhibitory Concentration Index): the row's azole combined with K20
[20] = tested on: Azole-resistant Candida albicans ATCC 10231; assay: Time-kill curves of itraconazole and K20; conditions: K20 alone, 32 μg mL^−1
Protocol: Method: Strain Candida albicans ATCC 10231 was prepared at an inoculum size of 10^5 c.f.u. mL^−1 in PDB-CA medium. The drug concentrations used were 32 μg mL^−1 for K20 and 0.18 μg mL^−1 for itraconazole. At designated times (0, 3, 6, 9, 24 and 48 h after incubation), 100 μL aliquots were removed from each solution and serially diluted 10-fold in sterile water. One hundred μL volumes of each dilution were streaked on agar surfaces of potato dextrose agar plates to allow growth. Colony counts were determined after incubation for 48 h. The experiment was performed triplicate.

[21] = tested on: Chinese Hamster Ovary (CHO) cells (line 1-15); type: cell-based; conditions: 3.7 μg mL^−1
Protocol: Method: […] The cells were transferred into sterile 50 mL Falcon conical plastic tubes containing 10 mL of the medium at a cell density of 2.5×10^5 cells mL^-1. […] The suspensions were incubated with continuous agitation for 48 h at 37° C. with 5% CO2 in a humidified incubator. After 24 and 48 h, lmL portions of the cell culture suspensions (drug treated or untreated) were transferred to Beckman Coulter Vi-Cell XR cups and mixed with Trypan Blue to determine cell counts and viability in a Beckman Coulter Vi-Cell counter.

[22] = tested on: Fusarium graminearum; assay: microbe, parasite or virus in culture; type: cell-based; conditions: for MIC: Fusarium graminearum, read-out: MIC (growth inhibition)
[23] = tested on: Rhodotorula pilimanae; assay: microbe, parasite or virus in culture; type: cell-based; conditions: Rhodotorula mucilaginosa

In the case of NC[C@H]1O[C@H](O[C@H]2[C@H](O)[C@@H](O[C@H]3O[C@H](CO)[C@@H](O)[C@H](N)[C@H]3O)[C@H](N)C[C@@H]2N)[C@H](N)[C@@H](O)[C@@H]1O [kanamycin B], the MIC [1] is reported as 1.95 µg/mL (≈ 4.03 µM) and the MIC [2] is reported as 0.98 µg/mL (≈ 2.03 µM).
With NCC1O[C@H](OC2C(N)CC(N)[C@@H](OC3O[C@H](CO)C(O)[C@@H](N)[C@H]3O)[C@H]2O)C(O)[C@@H](O)[C@@H]1O (stereo partly drawn) [kanamycin A] the MIC ([1]; read-out: MIC) was 1.95 µg/mL (≈ 4.02 µM), the MIC ([2]; read-out: MIC) was 0.98 µg/mL (≈ 2.02 µM) and the “Relative Activity (zone of inhibition diameter)” value [3] was “+++”. For the same compound, the “Relative Activity (zone of inhibition diameter)” value [4] was “+++” and the “Relative Activity (zone of inhibition diameter)” value [5] was “+++”.
For CCCCCCCCS(=O)(=O)OCC1OC(OC2C(N)CC(N)C(OC3OC(CN)C(O)C(O)C3O)C2O)C(O)C(N)C1O (stereo not drawn) [K20, 6″-O-octanesulfonylkanamycin A], the MIC [1] was 250 µg/mL (≈ 378 µM), the MIC [2] was 62.5 µg/mL (≈ 94.6 µM) and the “Relative Activity (zone of inhibition diameter)” value [6] was “^b+++”. For the same compound, the “Relative Activity (zone of inhibition diameter)” value [7] was “+++”, the “Relative Activity (zone of inhibition diameter)” value [8] was “++” and the “Relative Activity (zone of inhibition diameter)” value [9] was “+++”. For the same compound, the “Relative Activity (zone of inhibition diameter)” value [10] was “++”, the “Relative Activity (zone of inhibition diameter)” value [11] was “++” and the “Relative Activity (zone of inhibition diameter)” value [12] was “+++”. The “Relative Activity (zone of inhibition diameter)” value [13] was “+++”, the “Relative Activity (zone of inhibition diameter)” value [14] was “++” and the “Relative Activity (zone of inhibition diameter)” value [15] was “+++”. The “Zone of growth inhibition / fungicidal activity” value ([16]; K20 alone, 32 μg mL^−1 per disc) was “no fungicidal activities”, the “Relative Activity (zone of inhibition diameter)” value [17] was “+++” and the “Relative Activity (zone of inhibition diameter)” value [18] was “++”. The “MIC, K20 alone” value ([19]; checkerboard, PDB-CA) was 128 µg/mL, the “MIC of K20 in combination” value ([19]; in combination with chlotrimazole) was 8 µg/mL and the “MIC of K20 in combination” value ([19]; in combination with fluconazole) was 16 µg/mL. For the same compound, the “MIC of K20 in combination” value ([19]; in combination with itraconazole) was 32 µg/mL, the “MIC of K20 in combination” value ([19]; in combination with ketoconazole) was 32 µg/mL and the “MIC of K20 in combination” value ([19]; in combination with metconazole) was 8 µg/mL. For the same compound, the “MIC of K20 in combination” value ([19]; in combination with posaconazole) was 16 µg/mL, the “MIC of K20 in combination” value ([19]; in combination with pyraclostrobin) was 16 µg/mL and the “MIC of K20 in combination” value ([19]; in combination with tioconazole) was 16 µg/mL. For the same compound, the “MIC of K20 in combination” value ([19]; in combination with voriconazole) was 4 µg/mL and the time-kill effect [20] was “the same as the control”.
For Cc1ccc(S(=O)(=O)OC[C@H]2OC(O[C@@H]3C(N)CC(N)C(O[C@H]4OC(CN)[C@@H](O)[C@H](O)C4O)[C@@H]3O)[C@H](O)[C@H](N)C2O)cc1 (stereo partly drawn) [K19, 6″-O-toluenesulfonylkanamycin A], the “inhibition of Rhodotorula” value ([15]; result in words, assay type (MIC or disk diffusion) not stated) was “relatively little but nevertheless some inhibition of Rhodotorula”.
OC(Cn1cncn1)(Cn1cncn1)c1ccc(F)cc1F [fluconazole] was tested, and the MIC ([19]; checkerboard, PDB-CA) was greater than 24 µg/mL, the “MIC of azole in combination with K20” value ([19]; checkerboard) was 3 µg/mL and the “Effect (drug interaction class by FICI)” value [19] was “synergy”. For the same compound, the “FICI (Fractional Inhibitory Concentration Index)” value [19] was 0.18.
With COC(=O)N(OC)c1ccccc1COc1ccn(-c2ccc(Cl)cc2)n1 [pyraclostrobin] the MIC ([19]; checkerboard, PDB-CA) was 6 µg/mL, the “MIC of azole in combination with K20” value ([19]; checkerboard) was 0.75 µg/mL and the “Effect (drug interaction class by FICI)” value [19] was “synergy”. For the same compound, the “FICI (Fractional Inhibitory Concentration Index)” value [19] was 0.25.
In the case of CCC(C)n1ncn(-c2ccc(N3CCN(c4ccc(OCC5COC(Cn6cncn6)(c6ccc(Cl)cc6Cl)O5)cc4)CC3)cc2)c1=O (stereo not drawn) [itraconazole], the “decrease in cell viability” value [21] is reported as 63%, the “Zone of growth inhibition / fungicidal activity” value ([16]; ITC alone, 0.5 μg mL^−1 per disc) is reported as “no fungicidal activities” and the MIC ([19]; checkerboard, PDB-CA) is reported as greater than 3 µg/mL. The “MIC of azole in combination with K20” value ([19]; checkerboard) was 0.18 µg/mL, the “Effect (drug interaction class by FICI)” value [19] was “synergy” and the “FICI (Fractional Inhibitory Concentration Index)” value [19] was 0.31.
In the case of CC1(C)CCC(Cc2ccc(Cl)cc2)C1(O)Cn1cncn1 (stereo not drawn) [metconazole], the MIC ([19]; checkerboard, PDB-CA) is reported as 2.5 µg/mL, the “MIC of azole in combination with K20” value ([19]; checkerboard) is reported as 0.15 µg/mL and the “Effect (drug interaction class by FICI)” value [19] is reported as “synergy”. The “FICI (Fractional Inhibitory Concentration Index)” value [19] was 0.12.
For CCCCCCS(=O)(=O)OC[C@H]1OC(O[C@@H]2C(N)CC(N)C(O[C@H]3OC(CN)[C@@H](O)[C@H](O)C3O)[C@@H]2O)[C@H](O)[C@H](N)C1O (stereo partly drawn) [K22, 6″-O-hexanesulfonylkanamycin A], the MIC [22] was 31.3 µg/mL (≈ 49.5 µM).
In the case of CCCCCCCCNC[C@H]1OC(O[C@@H]2C(N)CC(N)C(O[C@H]3OC(CN)[C@@H](O)[C@H](O)C3O)[C@@H]2O)[C@H](O)[C@H](N)C1O (stereo partly drawn) [K17, 6″-deoxy-6″-octylaminokanamycin A], the “activity in inhibition zone assay” value ([15]; against Rhodotorula pilimanae, result in words) is reported as “Not determined. Only inhibition zone assay and not active against Rhodotorula pilimanae”.
In the case of CC[C@@H]([C@H](C)O)n1ncn(-c2ccc(N3CCN(c4ccc(OC[C@@H]5CO[C@@](Cn6cncn6)(c6ccc(F)cc6F)C5)cc4)CC3)cc2)c1=O [posaconazole], the MIC ([19]; checkerboard, PDB-CA) is reported as greater than 0.75 µg/mL, the “MIC of azole in combination with K20” value ([19]; checkerboard) is reported as 0.09 µg/mL and the “Effect (drug interaction class by FICI)” value [19] is reported as “synergy”. The “FICI (Fractional Inhibitory Concentration Index)” value [19] was 0.24.
With CCCCCCCC(=O)OC[C@H]1OC(O[C@@H]2C(N)CC(N)C(O[C@H]3OC(CN)[C@@H](O)[C@H](O)C3O)[C@@H]2O)[C@H](O)[C@H](N)C1O (stereo partly drawn) [K05, 6″-O-octanoylkanamycin A] the MIC [22] was greater than 62.5 µg/mL and the “concentration giving no pigmentation” value ([22]; against Fusarium graminearum) was 31.25 µg/mL.
For Clc1ccccc1C(c1ccccc1)(c1ccccc1)n1ccnc1 [chlotrimazole], the “MIC, azole alone” value ([19]; checkerboard, PDB-CA) was 1.25 µg/mL, the “MIC of azole in combination with K20” value ([19]; checkerboard) was 0.15 µg/mL and the “Effect (drug interaction class by FICI)” value [19] was “synergy”. The “FICI (Fractional Inhibitory Concentration Index)” value [19] was 0.18.
With CCCCCCCCSC[C@H]1OC(O[C@@H]2C(N)CC(N)C(O[C@H]3OC(CN)[C@@H](O)[C@H](O)C3O)[C@@H]2O)[C@H](O)[C@H](N)C1O (stereo partly drawn) [K18, 6″-deoxy-6″octylthiokanamycin A] the MIC [22] was 15.6 µg/mL (≈ 25.5 µM) and the MIC [23] was 62.5 µg/mL (≈ 102 µM).
For C[C@@H](c1ncncc1F)[C@](O)(Cn1cncn1)c1ccc(F)cc1F [voriconazole], the MIC ([19]; checkerboard, PDB-CA) was greater than 1 µg/mL, the “MIC of azole in combination with K20” value ([19]; checkerboard) was 0.125 µg/mL and the “Effect (drug interaction class by FICI)” value [19] was “synergy”. For the same compound, the “FICI (Fractional Inhibitory Concentration Index)” value [19] was 0.15.
With Clc1ccc(C(Cn2ccnc2)OCc2ccsc2Cl)c(Cl)c1 (stereo not drawn) [tioconazole] the MIC ([19]; checkerboard, PDB-CA) was 0.25 µg/mL, the “MIC of azole in combination with K20” value ([19]; checkerboard) was 0.03 µg/mL and the “Effect (drug interaction class by FICI)” value [19] was “synergy”. For the same compound, the “FICI (Fractional Inhibitory Concentration Index)” value [19] was 0.25.
For CC(=O)N1CCN(c2ccc(OCC3COC(Cn4ccnc4)(c4ccc(Cl)cc4Cl)O3)cc2)CC1 (stereo not drawn) [ketoconazole], the MIC ([19]; checkerboard, PDB-CA) was 24 µg/mL, the “MIC of azole in combination with K20” value ([19]; checkerboard) was 1.5 µg/mL and the “Effect (drug interaction class by FICI)” value [19] was “synergy”. The “FICI (Fractional Inhibitory Concentration Index)” value [19] was 0.31.
